Test [1] concerns the target T1, GAPCP1 (Arabidopsis thaliana, UniProt Q9SAJ6).
T1 construct: N-terminal His6 (pDEST17), cloned from Arabidopsis cDNA, expressed in E. coli, SEC purified
In words: biochemical. Also on record: nanoDSF thermal shift, intrinsic fluorescence ratio 350/330 nm, Prometheus NT.48. The following applies: 1x PBS. The method, then: (§1) Protein thermal stability measurements GAPC1/2, GAPCP1, and GAPCP2 proteins were obtained as described above, and the human GAPDH recombinant protein was obtained from a commercial supplier (Sigma) and stored in 10 mM Tris buffer (pH 7.5, 0.5 M NaCl). Tyr–Asp (25 μM), 3PGA (250 μM), and other dipeptides (25 μM) were prepared in 1× PBS buffer for the measurements using GAPC1/2 protein. For GAPCP1 Tyr–Asp (25 μM), 3PGA (250 μM) and other dipeptides (25 μM) were prepared in 1× PBS buffer, whereas for GAPCP2 Tyr–Asp (50 μM), 3PGA (250 μM) and other dipeptides (50 μM) were prepared in 1× PBS buffer. In addition, for the human GAPDH Tyr–Asp (500 μM), 3PGA (500 μM) and other dipeptides (500 μM) were prepared in Tris buffer (10 mM Tris-HCl, pH 7.5, 0.5 M NaCl). In accordance, GAPDH (1 μM) and GAPCs (0.2–0.25 mg/ml) were diluted using Tris or PBS buffer, respectively. Capillaries were loaded into the Prometheus NT.48 (Nanotemper). Unfolding was detected during heating in a linear thermal ramp (2 °C min^−1, 20–90 °C) with an excitation power of 60–100%. Temperature-dependent protein unfolding was determined from changes in tryptophan and tyrosine fluorescence at emission wavelengths of 350 and 330 nm. Melting temperatures were determined by detecting the maximum of the first derivative of the fluorescence ratios (F350 nm/F330 nm) as described previously ([43]). To validate the binding, we first tested a commercially available human homolog of GAPC1, GAPDH. Subsequently, plant GAPC1/2, GAPCP1, and GAPCP2 were overexpressed and purified from E. coli. Binding was probed using nano-DSF technology from Nanotemper (Prometheus NT.48; see under “Experimental procedures”). Prometheus NT.48 traces protein thermal stability by recording changes in the tryptophan residues during protein unfolding in an increasing temperature gradient. The melting temperature (Tm) of GAPDH was calculated as 60 °C, GAPC1/2 to 54 °C, GAPCP1 to 55 °C, and GAPCP2 to 55 °C (Fig. 7, C–F; Tables S5 and S6). […] Analogous results were obtained for Tyr–Asp. More specifically, 500 μM Tyr–Asp stabilized GAPDH by ∼1.1 °C, whereas 25–50 μM Tyr–Asp destabilized GAPC1/2, GAPCP1, and GAPCP2 by ∼1, 2, and 1.5 °C, respectively (Fig. 7, C–F; Tables S5 and S6). The obtained results validate the interaction between Tyr–Asp and plant glyceraldehyde-3-P dehydrogenases. The interaction is conserved in the human enzyme.

The target of test [2] is T2, GAPDH (Homo sapiens, UniProt P04406).
T2 construct: commercial human recombinant protein (Sigma)
Description: biochemical. Also on record: nanoDSF thermal shift, intrinsic fluorescence ratio 350/330 nm, Prometheus NT.48. The following applies: 10 mM Tris pH 7.5, 0.5 M NaCl. As for the experimental part:
as §1

Test [3] addresses T3, GAPCP2 (Arabidopsis thaliana, UniProt Q5E924).
T3 construct: N-terminal His6 (pDEST17), cloned from Arabidopsis cDNA, expressed in E. coli, SEC purified
Description: biochemical. Also on record: nanoDSF thermal shift, intrinsic fluorescence ratio 350/330 nm, Prometheus NT.48. The note with it: 1x PBS. The method, then: as §1

In a further test the target is T4, KPHMT1 (Arabidopsis thaliana, UniProt O82357).
T4 construct: N-terminal 144 bp of CDS (mitochondrial signal peptide, 48 residues) deleted; N-terminal His6 (pET300), E. coli BL21 Star (DE3); purified per Results, bacterial lysate used directly per Methods; RED-Tris-NTA labelled
T4 sequence (O82357 49-347): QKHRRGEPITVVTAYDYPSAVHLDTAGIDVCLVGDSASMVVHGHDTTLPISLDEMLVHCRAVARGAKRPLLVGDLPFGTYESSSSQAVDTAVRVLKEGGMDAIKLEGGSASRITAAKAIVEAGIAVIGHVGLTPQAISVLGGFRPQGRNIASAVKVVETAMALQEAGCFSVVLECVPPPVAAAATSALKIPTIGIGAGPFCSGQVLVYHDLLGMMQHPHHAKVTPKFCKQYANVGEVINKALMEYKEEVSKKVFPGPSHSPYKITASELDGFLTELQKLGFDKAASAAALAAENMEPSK
Description: microscale thermophoresis. Format: binding. On the technique in general: In MST a laser heats a spot of the sample, and binding alters the fluorescence response.

Test [4] has as its target T2, GAPDH. Description: nanoDSF thermal shift. It is filed as binding. The following applies: 500 μM ligand; 1 μM protein; 10 mM Tris-HCl pH 7.5, 0.5 M NaCl.
For the next test, the target named is T5, MTI (Arabidopsis thaliana, UniProt Q9ZUG4).
T5 construct: gene At2g05830; N-terminal His6 (pET300), E. coli BL21 Star (DE3), Ni-NTA purified; RED-Tris-NTA labelled
T5 sequence (Q9ZUG4 1-374): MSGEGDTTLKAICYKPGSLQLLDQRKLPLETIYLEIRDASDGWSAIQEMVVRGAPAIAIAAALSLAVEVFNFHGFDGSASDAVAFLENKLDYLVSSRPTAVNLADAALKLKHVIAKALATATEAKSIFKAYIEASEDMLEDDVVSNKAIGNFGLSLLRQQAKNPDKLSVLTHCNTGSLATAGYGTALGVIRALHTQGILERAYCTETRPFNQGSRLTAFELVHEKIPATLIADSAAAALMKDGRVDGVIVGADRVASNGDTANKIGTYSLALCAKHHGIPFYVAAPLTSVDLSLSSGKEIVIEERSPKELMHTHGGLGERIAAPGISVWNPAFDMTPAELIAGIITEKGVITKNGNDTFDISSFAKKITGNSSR
In words: microscale thermophoresis. Format: binding.

Test [5] concerns the target T1, GAPCP1. In words: nanoDSF thermal shift. Format: binding. The note with it: 25 μM ligand; 0.2-0.25 mg/ml protein; PBS. (In general: Differential scanning fluorimetry follows unfolding on heating by fluorescence.)
Test [6] addresses T1, GAPCP1. In words: biochemical. Also on record: nanoDSF thermal shift; Tm from ratio of tryptophan fluorescence at 350 and 330 nm. The method, then:
(§2) GAPC1/2, GAPCP1, and GAPCP2 proteins were obtained as described above, and the human GAPDH recombinant protein was obtained from a commercial supplier (Sigma) and stored in 10 mM Tris buffer (pH 7.5, 0.5 M NaCl). Tyr–Asp (25 μM), 3PGA (250 μM), and other dipeptides (25 μM) were prepared in 1× PBS buffer for the measurements using GAPC1/2 protein. For GAPCP1 Tyr–Asp (25 μM), 3PGA (250 μM) and other dipeptides (25 μM) were prepared in 1× PBS buffer, whereas for GAPCP2 Tyr–Asp (50 μM), 3PGA (250 μM) and other dipeptides (50 μM) were prepared in 1× PBS buffer. In addition, for the human GAPDH Tyr–Asp (500 μM), 3PGA (500 μM) and other dipeptides (500 μM) were prepared in Tris buffer (10 mM Tris-HCl, pH 7.5, 0.5 M NaCl). […] Unfolding was detected during heating in a linear thermal ramp (2 °C min^−1, 20–90 °C) with an excitation power of 60–100%. Temperature-dependent protein unfolding was determined from changes in tryptophan and tyrosine fluorescence at emission wavelengths of 350 and 330 nm. Melting temperatures were determined by detecting the maximum of the first derivative of the fluorescence ratios (F350 nm/F330 nm) as described previously ([43]). […] The melting temperature (Tm) of GAPDH was calculated as 60 °C, GAPC1/2 to 54 °C, GAPCP1 to 55 °C, and GAPCP2 to 55 °C (Fig. 7, C–F; Tables S5 and S6). […]

Test [7] deals with T3, GAPCP2. In words: biochemical. Also on record: nanoDSF thermal shift; Tm from ratio of tryptophan fluorescence at 350 and 330 nm. The method, then: as §2
Test [8] addresses T3, GAPCP2. In words: nanoDSF thermal shift. Format: binding. The note with it: 50 μM ligand; 0.2-0.25 mg/ml protein; PBS.

Like-named read-outs stand apart in the source and are kept apart here. Where a SMILES comes first, the peptide text is derived from it.

What is called ΔTm is the change in melting temperature against a reference sample. As usually defined, the Kd is the equilibrium constant for the complex coming apart. A lower Kd goes with higher affinity.

T1 sequence (Q9SAJ6 whole entry): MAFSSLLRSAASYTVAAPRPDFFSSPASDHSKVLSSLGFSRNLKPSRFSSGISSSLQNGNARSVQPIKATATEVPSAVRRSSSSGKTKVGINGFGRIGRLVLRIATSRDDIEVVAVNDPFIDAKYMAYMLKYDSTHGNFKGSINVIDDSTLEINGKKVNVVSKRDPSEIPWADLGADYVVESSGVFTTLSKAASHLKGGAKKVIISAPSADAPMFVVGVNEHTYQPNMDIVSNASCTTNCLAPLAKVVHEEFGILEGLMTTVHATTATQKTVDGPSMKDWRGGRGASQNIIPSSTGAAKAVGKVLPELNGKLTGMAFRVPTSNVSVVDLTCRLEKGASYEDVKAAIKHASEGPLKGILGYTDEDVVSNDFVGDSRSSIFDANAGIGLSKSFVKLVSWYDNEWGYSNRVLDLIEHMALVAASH
T2 sequence (P04406 2-335): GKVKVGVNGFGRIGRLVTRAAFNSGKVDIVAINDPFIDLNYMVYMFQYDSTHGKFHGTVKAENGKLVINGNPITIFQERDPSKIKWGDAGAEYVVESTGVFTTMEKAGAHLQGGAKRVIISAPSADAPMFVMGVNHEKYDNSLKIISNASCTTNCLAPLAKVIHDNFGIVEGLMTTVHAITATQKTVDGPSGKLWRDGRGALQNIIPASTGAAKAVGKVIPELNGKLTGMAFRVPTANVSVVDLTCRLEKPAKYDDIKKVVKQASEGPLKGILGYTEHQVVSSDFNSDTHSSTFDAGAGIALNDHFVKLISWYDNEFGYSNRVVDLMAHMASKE
T3 sequence (Q5E924 67-420): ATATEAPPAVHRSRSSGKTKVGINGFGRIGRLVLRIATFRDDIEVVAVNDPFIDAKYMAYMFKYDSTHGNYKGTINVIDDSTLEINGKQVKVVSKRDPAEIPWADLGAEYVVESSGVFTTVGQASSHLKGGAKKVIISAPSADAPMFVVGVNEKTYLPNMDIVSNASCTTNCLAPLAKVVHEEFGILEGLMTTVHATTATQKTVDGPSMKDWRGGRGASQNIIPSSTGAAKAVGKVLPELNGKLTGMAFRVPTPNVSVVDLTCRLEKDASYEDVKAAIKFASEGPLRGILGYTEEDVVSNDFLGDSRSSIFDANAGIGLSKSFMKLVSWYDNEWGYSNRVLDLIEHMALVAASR

On to `CC(C)C[C@H](NC(=O)[C@@H](N)Cc1ccc(O)cc1)C(=O)O` [TyrLeu] (H-Tyr-Leu-OH), for which, at GAPCP1 [1], the ΔTm at 25 µM was found to be 0.15 °C. The ΔTm at 500 µM at GAPDH [2] is 2.2 °C. At GAPCP2 [3], the ΔTm at 50 µM turned out to be 1.67 °C.
As for `CSCC[C@H](NC(=O)[C@@H](N)[C@@H](C)O)C(=O)O` [ThrMet] (H-Thr-Met-OH), the ΔTm at 25 µM on GAPCP1 [1] was -0.01 °C. At GAPDH [2], the ΔTm at 500 µM worked out at 0.2 °C. Also, on GAPCP2 [3], the ΔTm at 50 µM was 0.66 °C.
At KPHMT1, `CC(C)(CO)[C@@H](O)C(=O)NCCC(=O)O` [pantothenate] returned a Kd of 500 µM.
`N[C@@H](Cc1c[nH]cn1)C(=O)N[C@@H](Cc1ccc(O)cc1)C(=O)O` [His–Tyr] (H-His-Tyr-OH): the ΔTm at 25 µM at GAPCP1 [1] was -0.02 °C. Also, the ΔTm at 500 µM at GAPDH [2] is -1.2 °C. In addition, at GAPCP2 [3], the ΔTm at 50 µM was determined as 0.22 °C. Further, on GAPDH [4], the dTm entry is “Tm of the human GAPDH was affected by the presence of two other Tyr-containing dipeptides”.
Take `NCC(=O)N1CCC[C@H]1C(=O)O` [GlyPro] (H-Gly-Pro-OH): the ΔTm at 25 µM on GAPCP1 [1] is -0.11 °C. For the same molecule, on GAPDH [2], the ΔTm at 500 µM was 0.1 °C. For the same molecule, on GAPCP2 [3], the ΔTm at 50 µM was 0.55 °C.
For the molecule `CSC[C@H]1O[C@@H](n2cnc3c(N)ncnc32)[C@H](O)[C@@H]1O` [MTA], on MTI, the Kd is 4 µM.
`CC(C)C[C@H](N)C(=O)N[C@@H](Cc1ccccc1)C(=O)O` [LeuPhe] (H-Leu-Phe-OH): the ΔTm at 25 µM on GAPCP1 [1] is -0.33 °C. Moreover, the ΔTm at 500 µM at GAPDH [2] amounted to 0.2 °C. Moreover, on GAPCP2 [3], the ΔTm at 50 µM was found to be 0.2 °C.
On to `O=C(O)CC[C@H](NC(=O)[C@@H]1CCCN1)C(=O)O` [ProGlu] (H-Pro-Glu-OH), for which the ΔTm at 25 µM on GAPCP1 [1] is -0.1 °C. Also, the ΔTm at 500 µM at GAPDH [2] amounted to 0.1 °C. In addition, on GAPCP2 [3], the ΔTm at 50 µM was -0.12 °C.
Consider `N[C@@H](Cc1ccc(O)cc1)C(=O)N[C@@H](CC(=O)O)C(=O)O` [Tyr–Asp] (H-Tyr-Asp-OH), for which the ΔTm at 25 µM on GAPCP1 [1] (experiment 1) was -1.56 °C; on GAPCP1 [1] (experiment 2), -2.09 °C; on GAPCP1 [1] (experiment 3), -2.2 °C; on GAPCP1 [1] (experiment 4), -2.06 °C; on GAPCP1 [6] it was -2.06 °C. Moreover, the ΔTm at 500 µM came to 2.2 °C at GAPDH [2] (experiment 1), 1.31 °C on GAPDH [2] (experiment 2) and 1.06 °C on GAPDH [2] (experiment 4). Besides, the ΔTm at 50 µM on GAPCP2 [3] (experiment 1) is -1.6 °C; on GAPCP2 [3] (experiment 2), -1.58 °C; at GAPCP2 [3] (experiment 3), -1.55 °C; on GAPCP2 [3] (experiment 4), -1.23 °C; on GAPCP2 [7], -1.23 °C. In addition, the “dTm (destabilized)” value on GAPCP1 [5] was ~ 2 °C; on GAPCP2 [8] it was ~ 1.5 °C.

The values above are taken from PMC6093232, “PROMIS, global analysis of PROtein–metabolite interactions using size separation in Arabidopsis thaliana” (The Journal of Biological Chemistry, 2018).
